In patent US20140200215A1, “LYSOPHOSPHATIDIC ACID RECEPTOR ANTAGONISTS” (INTERMUNE, INC., priority 2013, published 2014):

Tests used:
Type in all cases: cell-based
[1] = test system: primary fibroblasts (including lung, dermal), HFL-1, 3T3 and CHO cells expressing LPA1R; test: LPA1 migration assay (Oris cell migration); conditions: inhibition of cell migration in response to chemoattractant (LPA, serum)
Description: Migration of primary fibroblasts (including lung, dermal), HFL-1, 3T3 and CHO cells expressing LPA1R were monitored using the Oris™ assay (Platypus Technologies, Madison, Wis.). These cells were dye (Cell Tracker Green™) loaded and serum starved for 12-24 hrs. In response to chemoattractants such as LPA and serum, the cells migrated inward in to the exclusion (detection) zone. After fixing, fluorescent cells in the detection zone were counted using a high content reader. The ability of LPA1 antagonists to inhibit cell migration is quantified by plotting cell number vs. compound concentration and curve fitting the resulting dose-response curve to a 4 parameter logistic function.

[2] = molecular target: T1, Human LPA1 (Homo sapiens, UniProt Q92633); test: LPA1 calcium flux assay; design: the full-length cDNA for human LPA1 is obtained by PCR of the reverse transcription reaction; expressed in transfected cells; conditions: human LPA1 expressing CHO cells, stimulated with 10 nM LPA; read-out: Ca Flux LPA1 IC50
Method: Establishment of a CHO Cell Line Stably Expressing Human LPA1
A 1.1 kb cDNA encoding the human LPA1 receptor is cloned from human lung. Human lung RNA (Clontech Laboratories, Inc. USA) is reverse transcribed using the RETROscript kit (Ambion, Inc.) and the full-length cDNA for human LPA1 is obtained by PCR of the reverse transcription reaction. The nucleotide sequence of the cloned human LPA1 is determined by sequencing and is confirmed to be identical to the published human LPA1 sequence (An et al. Biochem. Biophys. Res. Commun. 231:619 (1997). The cDNA is cloned into the pCDNA5 pcDNA5/FRT expression plasmid and is transfected in CHO cells using lipofectamine 2000 (Invitrogen Corp., USA). Clones stably expressing human LPA1 are selected using hygromycin and identified as cells that show Ca-influx in response to LPA.
LPA1 and LPA3 Calcium Flux Assays
Human LPA1 or LPA3 expressing CHO cells were seeded at 20,000-45,000 cells per well in a 96-well poly-D-lysine coated plate one or two days before the assay. Prior to the assay, the cells were washed once with PBS and then cultured in serum-free media overnight. On the day of the assay, a calcium indicator dye (Calcium 4, Molecular Devices) in assay buffer (HBSS with Ca^2+ and Mg^2+ and containing 20 mM Hepes and 0.3% fatty-acid free human serum albumin) was added to each well and incubation continued for 1 hour at 37° C. 10 μl of test compounds in 2.5% DMSO were added to the cells and incubation continued at room temperature for 30 minutes. Cells were then stimulated by the addition of 10 nM LPA and intracellular Ca^2+ measured using the Flexstation 3 (Molecular Devices). IC50, were determined using Graphpad prism analysis of drug titration curves.

[3] = molecular target: T1, Human LPA1; test: Beta-Arrestin based assay for human LPA1R antagonists (PathHunter); conditions: CHO cells expressing ProLink tagged human LPA1R; antagonist mode, 0.5 micromolar LPA
Method: Beta-Arrestin Based Assays for Human LPA1R Antagonists and Agonists
A CHO cell line stably expressing the ProLink™ tagged human LPA1R was obtained from DiscoverX Inc, Fremont, Calif. In this system, β-Arrestin was fused to an N-terminal deletion mutant of β-galactosidase (termed the enzyme acceptor or EA), the human LPA1R was fused to a smaller (42 amino acids) weakly complementing fragment termed ProLink™. […] Cell handling and assays were performed according to protocols specified in the PathHunter® assays kits (DiscoverX, Fremont, Calif.). Assays were performed in quadruplicate in white 384 well plates. End point luminescence data were plotted and fit to a 4 parameter logistic function to obtain IC50 values. For antagonist assays, an […] concentration of agonist (LPA) equal to 0.5 micromolar was used.

T1 sequence (Q92633 whole entry): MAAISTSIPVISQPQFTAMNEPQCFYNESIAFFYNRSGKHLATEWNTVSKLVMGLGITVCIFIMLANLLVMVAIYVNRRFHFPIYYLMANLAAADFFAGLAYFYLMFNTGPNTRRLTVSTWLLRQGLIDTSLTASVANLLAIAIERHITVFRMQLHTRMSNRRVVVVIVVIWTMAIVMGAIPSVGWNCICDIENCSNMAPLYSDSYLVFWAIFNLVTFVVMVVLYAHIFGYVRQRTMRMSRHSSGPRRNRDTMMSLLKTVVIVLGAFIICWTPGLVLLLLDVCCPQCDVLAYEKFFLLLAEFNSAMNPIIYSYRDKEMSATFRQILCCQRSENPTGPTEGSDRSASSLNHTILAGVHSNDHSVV

| Compound | EC50 [1] | IC50 [2] | EC50 [3] |
| --- | --- | --- | --- |
| Cc1noc(-c2ccc(-c3ccc(C4(C(=O)O)CCOCC4)cc3)c(F)c2)c1NC(=O)O[C@H](C)c1ccccc1 [IT028] | < 0.05 µM | < 0.05 µM | < 0.05 µM |
| Cc1noc(C#Cc2cc3sc(C4(C(=O)O)CC4)cc3s2)c1NC(=O)O[C@H](C)c1ccccc1Cl [IT047] | < 0.05 µM | 0.05 to 0.5 µM | < 0.05 µM |
| C[C@@H](OC(=O)Nc1c(C#Cc2ccc3cc(C4(C(=O)O)CC4)ccc3c2)nnn1C)c1ccccc1 [IT064] | 0.05 to 0.5 µM | < 0.05 µM | < 0.05 µM |
| C[C@@H](OC(=O)Nc1c(-c2ccc(-c3ccc(C4(C(=O)O)CC4)cc3)cc2)nc2cnccn12)c1ccccc1 [IT032] | 0.05 to 0.5 µM | 0.05 to 0.5 µM | < 0.05 µM |
| C[C@@H](OC(=O)Nc1c(C#Cc2ccc3cc(C4(C(=O)O)CC4)ccc3c2)cnn1C)c1ccccc1 [IT014] | 0.05 to 0.5 µM | < 0.05 µM | < 0.05 µM |
| C[C@@H](OC(=O)Nc1c(-c2ccc(-c3ccc(C4(C(=O)O)CCOCC4)cc3)cc2)ncn1C)c1ccccc1 [IT027] | > 0.5 µM | 0.05 to 0.5 µM | 0.05 to 0.5 µM |
| C[C@@H](OC(=O)Nc1c(-c2ccc(-c3ccc(C4(C(=O)O)CC4)cc3)cc2)sc2ncccc12)c1ccccc1 [IT031] | 0.05 to 0.5 µM | 0.05 to 0.5 µM | < 0.05 µM |
| Cc1noc(-c2cc(F)c(-c3ccc(C4(C(=O)O)CCOCC4)cc3)cc2F)c1NC(=O)O[C@H](C)c1ccccc1 [IT029] | 0.05 to 0.5 µM | 0.05 to 0.5 µM | < 0.05 µM |
| Cc1nnn(-c2ccc(-c3cc4sc(C5(C(=O)O)CC5)cc4s3)cc2)c1NC(=O)O[C@H](C)c1ccccc1 [IT051] | 0.05 to 0.5 µM | 0.05 to 0.5 µM | 0.05 to 0.5 µM |
| Cc1nnn(-c2cc(F)c(-c3cc4sc(C5(C(=O)O)CC5)cc4s3)cc2F)c1NC(=O)O[C@H](C)c1ccccc1 [IT067] | > 0.5 µM | 0.05 to 0.5 µM | 0.05 to 0.5 µM |
| CC(=O)N1CCn2c(nc(-c3ccc(-c4ccc(C5(C(=O)O)CC5)cc4)cc3)c2NC(=O)O[C@H](C)c2ccccc2)C1 [IT020] | > 0.5 µM | > 0.5 µM | > 0.5 µM |
| Cc1noc(C#Cc2cc3sc(C4(C(=O)O)CC4)cc3s2)c1NC(=O)OCc1ccccc1 [IT048] | 0.05 to 0.5 µM | < 0.05 µM | < 0.05 µM |
| C[C@@H](OC(=O)Nc1c(C#Cc2cc3sc(C4(C(=O)O)CC4)cc3s2)cnn1C)c1ccccc1 [IT017] | < 0.05 µM | < 0.05 µM | < 0.05 µM |
| C[C@@H](OC(=O)Nc1c(-c2ccc(-c3ccc(C4(C(=O)O)CC4)cc3)cc2)nc2n1CCN(S(C)(=O)=O)C2)c1ccccc1 [IT021] | > 0.5 µM | > 0.5 µM | > 0.5 µM |
| C[C@@H](OC(=O)Nc1c(-c2ccc(-c3ccc(C4(C(=O)O)CC4)cc3)cc2)nc2cccnn12)c1ccccc1 [IT041] | > 0.5 µM | 0.05 to 0.5 µM | > 0.5 µM |
| C[C@@H](OC(=O)Nc1c(-c2ccc(C#CC3(C(=O)O)CC3)cc2)cnn1C)c1ccccc1 [IT018] | > 0.5 µM | > 0.5 µM | > 0.5 µM |
| Cc1nsc(C#Cc2cc3sc(C4(C(=O)O)CC4)cc3s2)c1NC(=O)O[C@H](C)c1ccccc1 [IT034] | 0.05 to 0.5 µM | 0.05 to 0.5 µM | < 0.05 µM |
| C[C@@H](OC(=O)Nc1c(C#Cc2ccc3cc(C4(C(=O)O)CC4)ccc3c2)sc2ncccc12)c1ccccc1 [IT035] | 0.05 to 0.5 µM | > 0.5 µM | < 0.05 µM |
| Cc1noc(-c2ccc(-c3nc4ccc(C(=O)O)cc4s3)cc2)c1NC(=O)O[C@H](C)c1ccccc1 [IT010] | > 0.5 µM | > 0.5 µM | > 0.5 µM |
| C[C@@H](OC(=O)Nc1c(C#Cc2cc3sc(C4(C(=O)O)CC4)cc3s2)nnn1C)c1ccccc1 [IT069] | 0.05 to 0.5 µM | < 0.05 µM | < 0.05 µM |
| C[C@@H](OC(=O)Nc1c(-c2cc(F)c(-c3ccc(C4(C(=O)O)CC4)cc3)cc2F)nn2ncccc12)c1ccccc1 [IT061] | 0.05 to 0.5 µM | < 0.05 µM | < 0.05 µM |

| Compound | EC50 [1] | IC50 [2] | EC50 [3] |
| --- | --- | --- | --- |
| Cc1noc(-c2ccc(-c3ccc4c(C(=O)O)c[nH]c4c3)cc2)c1NC(=O)O[C@H](C)c1ccccc1 [IT009] | > 0.5 µM | > 0.5 µM | > 0.5 µM |
| C[C@@H](OC(=O)Nc1c(-c2cc(F)c(-c3cc4sc(C5(C(=O)O)CC5)cc4s3)cc2F)nnn1C)c1ccccc1 [IT071] | 0.05 to 0.5 µM | 0.05 to 0.5 µM | < 0.05 µM |
| C[C@@H](OC(=O)Nc1c(C#Cc2ccc3cc(C4(C(=O)O)CC4)ccc3c2)cnn1C1CC1)c1ccccc1 [IT015] | 0.05 to 0.5 µM | 0.05 to 0.5 µM | < 0.05 µM |
| Cc1noc(-c2cc(F)c(-c3ccc(C4(C(=O)O)CCOCC4)cc3)cc2F)c1NC(=O)O[C@H](C)c1ccccc1 [IT030] | > 0.5 µM | > 0.5 µM | > 0.5 µM |
| Cc1nsc(-c2ccc3cc(-c4ccc(C(=O)O)cc4)ccc3c2)c1NC(=O)O[C@H](C)c1ccccc1 [IT040] | > 0.5 µM | > 0.5 µM | > 0.5 µM |
| Cc1nsc(-c2ccc(C34CCC(CC(=O)O)(CC3)CC4)cc2)c1NC(=O)O[C@H](C)c1ccccc1 [IT026] | > 0.5 µM | > 0.5 µM | > 0.5 µM |
| Cc1noc(C#Cc2ccc3cc(C4(CC(=O)O)CC4)ccc3c2)c1NC(=O)O[C@H](C)c1ccccc1 [IT003] | 0.05 to 0.5 µM | < 0.05 µM | < 0.05 µM |
| CCn1ncc(C#Cc2ccc3cc(C4(C(=O)O)CC4)ccc3c2)c1NC(=O)O[C@H](C)c1ccccc1 [IT016] | 0.05 to 0.5 µM | < 0.05 µM | < 0.05 µM |
| C[C@@H](OC(=O)Nc1c(-c2ccc(-c3ccc(C4(C(=O)O)CC4)cc3)cc2)nc2ncccn12)c1ccccc1 [IT043] | 0.05 to 0.5 µM | 0.05 to 0.5 µM | < 0.05 µM |
| Cc1noc(-c2ccc(-c3ccc(C4(CC(=O)O)CC4)cc3)cc2)c1NC(=O)O[C@H](C)c1ccccc1 [IT004] | < 0.05 µM | < 0.05 µM | < 0.05 µM |
| C[C@@H](OC(=O)Nc1c(CCc2cc3sc(C4(C(=O)O)CC4)cc3s2)cnn1C)c1ccccc1 [IT099] | > 0.5 µM | > 0.5 µM | 0.05 to 0.5 µM |
| CCn1ncc(C#Cc2cc3sc(C4(C(=O)O)CC4)cc3s2)c1NC(=O)O[C@H](C)c1ccccc1 [IT070] | < 0.05 µM | < 0.05 µM | < 0.05 µM |
| Cc1nsc(-c2ccc(N3CCC(CC(=O)O)CC3)cc2)c1NC(=O)O[C@H](C)c1ccccc1 [IT068] | > 0.5 µM |  | > 0.5 µM |
| C[C@@H](OC(=O)Nc1c(C#Cc2nc3sc(C4(C(=O)O)CC4)cc3s2)cnn1C)c1ccccc1 [IT095] | < 0.05 µM |  | < 0.05 µM |
| Cc1noc(C#Cc2ccc3cc(CC4(C(=O)O)CC4)ccc3c2)c1NC(=O)O[C@H](C)c1ccccc1 [IT065] | > 0.5 µM |  | 0.05 to 0.5 µM |
| Cc1nsc(-c2ccc(C34CCC(C5(C(=O)O)CC5)(CC3)CC4)cc2)c1NC(=O)O[C@H](C)c1ccccc1 [IT093] | > 0.5 µM |  | > 0.5 µM |
| Cc1noc(C#Cc2ccc(C3(CC(=O)O)CC3)cc2)c1NC(=O)O[C@H](C)c1ccccc1 [IT002] | 0.05 to 0.5 µM |  | 0.05 to 0.5 µM |
| C[C@@H](OC(=O)Nc1c(-c2ccc(-c3ccc(C4(C(=O)O)CC4)cc3)cc2)cnn1C(F)(F)F)c1ccccc1 [IT094] | 0.05 to 0.5 µM |  | < 0.05 µM |
| Cc1nsc(-c2ccc(-c3ccc(C4(C(=O)O)CC4)cc3)cc2)c1NC(=O)OC(c1ccccc1)C(F)(F)F (single isomer, unassigned) [IT079] | > 0.5 µM |  | > 0.5 µM |
| C[C@@H](OC(=O)Nc1c(C#Cc2cc3sc(C4(C(=O)OCOC(=O)C(C)(C)C)CC4)cc3s2)cnn1C)c1ccccc1 [IT087] | < 0.05 µM |  | < 0.05 µM |
